Results reported in patent US4786723A, “7-hydroxyguanine compounds, process for preparing said compounds, and anti-tumor agent containing the same” (Kanegafuchi Chemical Industry Co., Ltd., priority 1985, dated 1988).

How the values were obtained:
[1] = Acute toxicity; conditions: mouse, in vivo, ip; ICR male mice weighing 18-23 g, intraperitoneally administered for one week; read-out: 50% lethal toxicity (LD50)
Experimental: ICR male mice weighing 18-23 g were intraperitoneally administered with the test compounds for one week, and the 50% lethal toxicity (LD50 : mg/kg) was measured by a conventional method.

[2] = system: L-1210 leukemia; test: Anti-tumor activity against L-1210 leukemia in mice; type: in vivo, mouse; conditions: intraperitoneal, 5 days, BDF1 female mice
Experimental: Anti-tumor activity against L-1210 leukemia in mice
BDF1 female mice weighing 18-23 g (one group: 3 mice) were used. The mice were intraperitoneally inoculated with mouse L-1210 leukemia cells (1×10^5). […] As a control, 50 mM phosphate buffer (pH 7.4) without a test compound was intraperitoneally administered likewise. Based on the data, the life-prolongation ratio of the test compound was calculated.

## Nc1nc(O)c2c(n1)n([C@@H]1O[C@H](CO)[C@@H](O)[C@H]1O)c[n+]2[O-] [Compound A, 7-hydroxyguanine riboside]
[1]
  LD50: 192 mg/kg
[2]; 1.0 mg/kg/day
  Life-prolongation ratio: 128.9
[2]; 4.0 mg/kg/day
  Life-prolongation ratio: 148.2
[2]; 16.0 mg/kg/day
  Life-prolongation ratio: 148.2

## Nc1nc(O)c2c(n1)n([C@H]1C[C@H](O)[C@@H](CO)O1)c[n+]2[O-] [Compound B, 7-hydroxyguanine deoxyriboside]
[1]
  LD50: 172 mg/kg
[2]; 1.0 mg/kg/day
  Life-prolongation ratio: 120.5
[2]; 4.0 mg/kg/day
  Life-prolongation ratio: 160.2
[2]; 16.0 mg/kg/day
  Life-prolongation ratio: 168.7
